Read-outs that look alike come from different tables or passages of the source.
What was measured:
Format in all cases: in vivo
armyworm = assay: Insecticidal activity against armyworm (Airbrush spray on maize blade segments); details: 72 h, read-out: fatality rate against armyworm
Description: (§1) The compound to be tested was dissolved by a mixed solvent of acetone/methanol (1:1), and then diluted by water containing 0.1% (wt) Tween 80 to the required concentration.
(§2) An Airbrush spray method was adopted for the determination of the activity, with armyworm, Plutella xylostella and Chilo suppressalis as targets.
Determination method: maize blades were cut into 2 cm (length) segments; with the pressure of Airbrush spray being 10 psi (about 0.7 kg/cm^2), both sides of each blade segment were sprayed with the amount of 0.5 ml. After dried in the shade, each segment was inoculated with 10 3rd-instar larvaes, 3 repeats for each segment. And then, the treated segments were put into an observation room (25° C., relative humidity: 60-70%) for cultivation; the number of the survivals was surveyed 1 d, 2 d and 3 d after administration, and then the death rate was calculated.

Plutella xylostella = assay: Insecticidal activity against Plutella xylostella (Airbrush spray on cabbage leaf discs); details: for pest or weed control at 10 µg/mL: read-out: Fatality rate (%, 3 d after administration) 10 mg/L, Table 71, 10 mg/L, 3 d after administration
Description: as §1, §2
Determination method: cabbage blades were punched into 2 cm (diameter) leaf discs by a puncher; with the pressure of Airbrush spray being 10 psi (about 0.7 kg/cm^2), both sides of each leaf disc were sprayed with the amount of 0.5 ml. After dried in the shade, each leaf disc was inoculated with 10 3rd-instar larvaes, 3 repeats for each leaf disc. And then, the treated leaf discs were put into an observation room (25° C., relative humidity: 60-70%) for cultivation; the number of the survivals was surveyed 1 d, 2 d and 3 d after administration, and then the death rate was calculated.

Chilo suppressalis = assay: Insecticidal activity against Chilo suppressalis (spray on rice seedlings, stems fed to larvae); details: for pest or weed control at 1 µg/mL / pest or weed control at 4 µg/mL / pest or weed control at 40 µg/mL: Chilo suppressalis, 72 h, read-out: fatality rate against Chilo suppressalis
Description: as §1, §2
Determination method: 1) preparation of rice seedlings: rice was cultivated in small plastic cups (diameter: 4.5 cm and height: 4 cm) at a constant temperature room (temperature: 26-28° C., relative humidity: 60-80% around and illumination: 16 hL:8 hD), after the rice grew to a 4-5 leaf stage, vigorous and uniform-growth rice seedlings were selected and treated with an insecticide, 3 repeats for each treatment. 2) Preparation of pests for test: 3rd-instar larvaes of Chilo suppressalis fed continuously in the room. 3) Inoculation of pests on rice stems by spray. The whole plants of the rice seedlings were sprayed by a spray method uniformly, with the dose of 15 ml for each treatment. The blank control was treated first, and the above operation was repeated in an order of lower to higher test concentration. After sprayed, rice seedlings were placed in the shade to dry the insecticide liquor, and then stalks about 5 cm above the basal part of the stems were cut to be fed to the pests for test. Glass petri dishes (diameter: […]) were prepared, cushioned by filter paper at the bottom thereof, and subjected to water addition for moisturizing; about 20 pieces of rice stems were put in each dish and inoculated with 10 larvaes; then the petri dishes were closed by non-woven fabrics and placed in a constant temperature room for culture. The number of survivals was surveyed 3 d after administration.

[1] = Plutella xylostella, foliar, 72 h
[2] = Plutella xylostella, foliar, 72 h, read-out: fatality rate against Plutella xylostella, 0.5 mg/L, 3 d after administration
[3] = Plutella xylostella, foliar, 72 h, read-out: fatality rate against Plutella xylostella, 1 mg/L, 3 d after administration
[4] = Table 75, fast-acting efficacy, dose 0.5 mg/L
[5] = Table 76, fast-acting efficacy, dose 0.05 mg/L

Row | SMILES | pest or weed control at 0.05 µg/mL (armyworm) [%] | pest or weed control at 0.1 µg/mL (armyworm) [%] | pest or weed control at 0.5 µg/mL (armyworm) [%] | pest or weed control at 10 µg/mL (Plutella xylostella; [1]) [%] | pest or weed control at 0.5 µg/mL (Plutella xylostella; [2]) [%] | pest or weed control at 1 µg/mL (Plutella xylostella; [3]) [%] | pest or weed control at 1 µg/mL (Chilo suppressalis) [%] | pest or weed control at 4 µg/mL (Chilo suppressalis) [%] | pest or weed control at 40 µg/mL (Chilo suppressalis) [%] | also measured
1 | N#CCN(C(=O)c1ccccc1)c1cccc(C(=O)Nc2c(Br)cc(C(F)(C(F)(F)F)C(F)(F)F)cc2Br)c1F [Compound 2.321] | ≥ 90 | ≥ 90 | ≥ 90 | 100 | ≥ 90 | ≥ 90 | ≥ 90 | ≥ 90 | ≥ 90 | pest or weed control at 0.5 µg/mL (Plutella xylostella; Plutella xylostella, foliar, 72 h, read-out: Fatality rate (%, 3 d after administration) 0.5 mg/L, Table 73, 0.5 mg/L, 3 d after administration): 100%; pest or weed control at 1 µg/mL (Plutella xylostella; Plutella xylostella, foliar, 72 h, read-out: Fatality rate (%, 3 d after administration) 1 mg/L, Table 73, 1 mg/L, 3 d after administration): 100%; Fatality rate (%) 1 d after administration (Plutella xylostella; [4]): 80%; Fatality rate (%) 2 d after administration (Plutella xylostella; [4]): 95%; Fatality rate (%) 3 d after administration (Plutella xylostella; Table 75, fast-acting efficacy, dose 0.5 mg/L, 3 d after administration): 100%; Fatality rate (%, 3 d after administration) 1.25 mg/L (Chilo suppressalis; Table 77, 1.25 mg/L, 3 d after administration): 95.5%; Fatality rate (%, 3 d after administration) 2.5 mg/L (Chilo suppressalis; Table 77, 2.5 mg/L, 3 d after administration): 100%; Fatality rate (%, 3 d after administration) 5 mg/L (Chilo suppressalis; Table 77, 5 mg/L, 3 d after administration): 100%
2 | N#CCN(C(=O)c1ccccc1)c1cccc(C(=O)Nc2c(Cl)cc(C(F)(C(F)(F)F)C(F)(F)F)cc2Cl)c1F [Compound 3.321] | – | ≥ 90 | ≥ 90 | 100 | – | ≥ 90 | – | ≥ 90 | ≥ 90 | –
3 | Cc1cc(C(F)(C(F)(F)F)C(F)(F)F)cc(Br)c1NC(=O)c1cccc(N(CC#N)C(=O)c2ccccc2)c1F [Compound 6.321] | – | – | ≥ 90 | 100 | – | ≥ 90 | – | – | ≥ 90 | pest or weed control at 1 µg/mL (Plutella xylostella; Plutella xylostella, foliar, 72 h, read-out: Fatality rate (%, 3 d after administration) 1 mg/L, Table 72, 1 mg/L, 3 d after administration): 98.5%; Fatality rate (%, 3 d after administration) 5 mg/L (Plutella xylostella; Table 72, 5 mg/L, 3 d after administration): 100%
4 | N#CCN(C(=O)c1ccccc1)c1cccc(C(=O)Nc2c(Cl)cc(C(F)(C(F)(F)F)C(F)(F)F)cc2Br)c1F [Compound 7.321] | – | ≥ 90 | ≥ 90 | 100 | – | ≥ 90 | – | ≥ 90 | ≥ 90 | –
5 | N#CCN(C(=O)c1ccccc1)c1cccc(C(=O)Nc2c(Br)cc(C(F)(C(F)(F)F)C(F)(F)F)cc2I)c1F [Compound 8.321] | – | ≥ 90 | ≥ 90 | 100 | – | ≥ 90 | – | ≥ 90 | ≥ 90 | –
6 | N#CCN(C(=O)c1ccccc1)c1cccc(C(=O)Nc2c(Br)cc(C(F)(C(F)(F)F)C(F)(F)F)cc2C(F)(F)F)c1F [Compound 9.321] | ≥ 90 | ≥ 90 | ≥ 90 | 100 | ≥ 90 | ≥ 90 | ≥ 90 | ≥ 90 | ≥ 90 | pest or weed control at 0.5 µg/mL (Plutella xylostella; Plutella xylostella, foliar, 72 h, read-out: Fatality rate (%, 3 d after administration) 0.5 mg/L, Table 74, 0.5 mg/L, 3 d after administration): 100%; pest or weed control at 0.05 µg/mL (Plutella xylostella; Plutella xylostella, foliar, 72 h, read-out: fatality rate against Plutella xylostella, 0.05 mg/L, 3 d after administration): ≥ 90%; Fatality rate (%, 3 d after administration) 0.05 mg/L (Plutella xylostella; Table 74, 0.05 mg/L, 3 d after administration): 100%; Fatality rate (%) 1 d after administration (Plutella xylostella; [5]): 70%; Fatality rate (%) 2 d after administration (Plutella xylostella; [5]): 95%; Fatality rate (%) 3 d after administration (Plutella xylostella; Table 76, fast-acting efficacy, dose 0.05 mg/L, 3 d after administration): 100%; Fatality rate (%, 3 d after administration) 0.625 mg/L (Chilo suppressalis; Table 78, 0.625 mg/L, 3 d after administration): 98%; Fatality rate (%, 3 d after administration) 1.25 mg/L (Chilo suppressalis; Table 78, 1.25 mg/L, 3 d after administration): 100%; Fatality rate (%, 3 d after administration) 2.5 mg/L (Chilo suppressalis; Table 78, 2.5 mg/L, 3 d after administration): 100%

Reference: patent US11407711B2, “Benzamide compound and use thereof” (METISA BIOTECHNOLOGY CO., LTD., priority 2018, dated 2022)
